From patent US20130131018A1, “SUBSTITUTED ISOQUINOLINES AND THEIR USE AS TUBULIN POLYMERIZATION INHIBITORS” (Exonhit S.A., priority 2010, published 2013)
Structures can show the parent of a compound that is named as a salt. Where two headings read alike, the source gives them in different places.

Key:
[1] = test system: HUVEC; assay: Pre-established vessels disruption (capillary tubes on Matrigel); assay type: cell-based; details: HUVEC tubes formed 5 hours, then compounds overnight
Experimental: To explore the effect of the compounds on pre-established vasculature, twenty thousand cells (HUVEC) were seeded and incubated over Matrigel for 5 hours to allow the capillary tubes to form. Then, compounds were added and incubated overnight. The disappearance of existing vasculature was monitored with fluorescent microscopy.

[2] = test system: K562 cell line; assay: MTT assay: cytotoxicity against the K562 cell line; assay type: cell-based; details: K562 cells, 72 h, growth inhibition
Experimental: Assessment of Cell Viability via MTT Assay: Cytotoxicity of compounds against the K562 cell line was assessed using the [3-(4,5-dimethylthiazol-2-yl)-2,5-diphenyl tetrazolium bromide] (MTT) assay. Fifteen thousand tumor cells were seeded into wells of flat-bottomed 96-well plates. An amount of 2 μL of a dilution series of each compound dissolved in DMSO was added to 198 μL of appropriate growth medium at three replicates per concentration and the plates were incubated in a 5% CO2 incubator at 37° C. After 72 h, the number of metabolically active cells was determined by MTT assay. Absorbance of each well was measured at 550 nm on a Tecan Sunrise reader. Dose-response curves for growth inhibition were generated as a percentage of untreated control. IC50 was determined by nonlinear regression (Prism, Graph Pad Software, Inc.).

[3] = test system: Endothelial cells (HUVEC); assay: Neovessels formation inhibition (capillary tube formation on Matrigel); assay type: cell-based
Experimental: The capability of compounds to inhibit the formation of capillaries was evaluated in vitro. Twenty thousand Endothelial cells (HUVEC) were placed on a Matrigel matrix and allowed to form capillary tubes in the presence or absence of the compounds overnight. The cells were stained with calcein AM, and the effect of the compounds on capillary tube formation was assessed using an inverted fluorescent microscope (Nikon). The reference compound used in this assay AVE-8063 is 3-amino-deoxycombretastatin A-4.

[4] = target: T1, purified tubulin (Sus scrofa, UniProt P02550+P02554); assay: Tubulin polymerisation assay (CytoDYNAMIX Screen kit, absorbance at 340 nm); assay type: biochemical; details: for inhibition at 5 µM / % Inhibition of tubulin polymerization at 5 μM: 5 μM compound, 4 mg/ml tubulin; for inhibition at 5 µM: read-out: % Inhibition of tubulin polymerization at 5 μM; for IC50: tubulin polymerization
T1 construct: purchased Cytoskeleton #BK006P
Experimental: The polymerization of purified tubulin was monitored spectrophotometrically by the change in absorbance at 340 nm using the CytoDYNAMIX Screen kit (#BK006P, Cytoskeleton) according to the instructions of the manufacturer. […] The absorbance was measured at 1 minute intervals for 60 minutes. The test compound was added to a 4 mg/ml tubulin solution containing 10% glycerol and 1 mM GTP in Buffer 1 (Buffer 1: 80 mM PIPES; 2 mM MgCl2; 0.5 mM EGTA, pH 6.9). Increased absorbance indicates increase in microtubule formation from tubulin heterodimers.

[5] = Homo sapiens, read-out: Pre-established Vessels Disruption Number of Branch Junctions IC50
[6] = Homo sapiens, read-out: Pre-established Vessels Disruption Total Tubule Length IC50
[7] = Homo sapiens, HUVEC on Matrigel, compounds overnight, read-out: Neovessels Formation Inhibition Number of Branch Junctions IC50
[8] = Homo sapiens, HUVEC on Matrigel, compounds overnight, read-out: Neovessels Formation Inhibition Total Tubule Length IC50
[9] = read-out: Pre-established Vessels Disruption Number of Branch Junctions IC50
[10] = read-out: Pre-established Vessels Disruption Total Tubule Length IC50
[11] = HUVEC on Matrigel, compounds overnight, read-out: Neovessels Formation Inhibition Number of Branch Junctions IC50
[12] = HUVEC on Matrigel, compounds overnight, read-out: Neovessels Formation Inhibition Total Tubule Length IC50

T1 sequence (P02554 whole entry): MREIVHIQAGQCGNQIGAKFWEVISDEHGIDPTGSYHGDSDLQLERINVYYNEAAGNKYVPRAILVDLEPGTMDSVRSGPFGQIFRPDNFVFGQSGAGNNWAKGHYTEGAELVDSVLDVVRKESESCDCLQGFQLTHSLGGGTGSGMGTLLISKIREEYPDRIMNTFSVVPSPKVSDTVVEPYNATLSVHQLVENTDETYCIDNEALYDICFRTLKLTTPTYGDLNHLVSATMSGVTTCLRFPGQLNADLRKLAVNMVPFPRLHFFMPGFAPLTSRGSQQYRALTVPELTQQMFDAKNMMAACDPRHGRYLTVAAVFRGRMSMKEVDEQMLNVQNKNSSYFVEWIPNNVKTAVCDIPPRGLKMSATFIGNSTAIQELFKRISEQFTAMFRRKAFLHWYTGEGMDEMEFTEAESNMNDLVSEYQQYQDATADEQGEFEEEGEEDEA
T1 sequence (P02550 whole entry): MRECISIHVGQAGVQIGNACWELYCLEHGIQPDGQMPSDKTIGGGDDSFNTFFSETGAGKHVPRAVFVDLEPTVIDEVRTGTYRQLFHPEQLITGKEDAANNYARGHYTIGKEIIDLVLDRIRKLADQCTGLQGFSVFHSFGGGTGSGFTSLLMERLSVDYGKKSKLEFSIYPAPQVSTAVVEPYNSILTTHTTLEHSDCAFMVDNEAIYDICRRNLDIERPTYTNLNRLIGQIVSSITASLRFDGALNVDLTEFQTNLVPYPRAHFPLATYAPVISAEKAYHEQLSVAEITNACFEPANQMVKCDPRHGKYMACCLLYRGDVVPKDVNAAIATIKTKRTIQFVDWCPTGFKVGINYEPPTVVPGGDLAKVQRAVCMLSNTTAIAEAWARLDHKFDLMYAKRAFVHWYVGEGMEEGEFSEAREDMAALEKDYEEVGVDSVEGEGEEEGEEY

Row | inhibition at 5 µM [4] | IC50 [4] | SMILES | IC50 ([2]; Homo sapiens) | IC50 [3, 8] | other results
1 | – | – | COc1ccc(N(C)c2nc(C)nc3ccccc23)cc1 [Azixa, reference compound] | 2.15 nM | – | IC50 [1, 5]: 3.75 nM; IC50 [1, 6]: 6.01 nM; IC50 ([3]; Homo sapiens, HUVEC, read-out: Neovessels Formation Inhibition Number of Branch Junctions IC50 (nM)): 1.38 nM; IC50 ([3]; Homo sapiens, HUVEC, read-out: Neovessels Formation Inhibition Total Tubule Length IC50 (nM)): 2.16 nM
2 | – | 1780 nM | COc1cc(C(=O)c2c(C)oc3c(O)c(OC)ccc23)cc(OC)c1OC [BNC105, reference compound] | – | – | IC50 [1, 9]: 5.2 nM; IC50 [1, 10]: 6.37 nM; IC50 [2]: 0.55 nM; IC50 [3, 11]: 1.76 nM; IC50 [3, 12]: 2.49 nM; % Inhibition of tubulin polymerization at 5 μM [4]: 64.75%
3 | – | 4100 nM | COc1cc(C(=O)c2c(C)oc3c(OP(=O)([O-])O)c(OC)ccc23)cc(OC)c1OC.[Na+] [BNC105P, reference compound] | – | – | IC50 [1, 9]: 5.83 nM; IC50 [1, 10]: 7.37 nM; IC50 [2]: 17.3 nM; IC50 [3, 11]: 0.44 nM; IC50 [3, 12]: 1.53 nM; % Inhibition of tubulin polymerization at 5 μM [4]: 39.00%
4 | – | – | CCOc1ccc2c(Cc3cc(OC)c(OC)c(OC)c3)cncc2c1NS(N)(=O)=O [Compound 8, 7-Ethoxy-4-(3,4,5-trimethoxy-benzyl)isoquinolin-8-yl]-sulfamide hydrochloride] | 53.4 nM | 138 nM | IC50 [3, 7]: 100 nM
5 | – | 1050 nM | CCOc1ccc2c(Cc3cc(OC)c(OCC)c(OC)c3)cncc2c1O [Compound 14, 4-(4-Ethoxy-3,5-dimethoxybenzyl)-7-ethoxyisoquinolin-8-ol hydrochloride] | 30.3 nM | 39.5 nM | IC50 [3, 7]: 31.1 nM
6 | 69% | 970 nM | CCOc1cc(Cc2cncc3c(O)c(OCC)ccc23)cc(OC)c1OC [Compound 15, 4-(3-Ethoxy-4,5-dimethoxybenzyl)-7-ethoxyisoquinolin-8-ol hydrochloride] | 105 nM | – | –
7 | 61.4% | 990 nM | CCOc1ccc2c(Cc3cc(OC)c(OCC)c(OC)c3)cncc2c1N [Compound 18, 4-(4-Ethoxy-3,5-dimethoxybenzyl)-7-ethoxyisoquinolin-8-amine dihydrochloride] | 13.2 nM | 18.7 nM | IC50 [1, 5]: 17.8 nM; IC50 [1, 6]: 32.1 nM; IC50 [3, 7]: 13 nM
8 | 44.5% | – | COc1ccc2c(C(=O)c3cc(OC)c(OC)c(OC)c3)cncc2c1 [Compound 28, (7-Methoxyisoquinolin-4-yl)(3,4,5-trimethoxyphenyl)methanone hydrochloride] | 42.1 nM | – | –
9 | 21% | – | CCOc1ccc2c(Cc3cc(OC)c(OCC(F)(F)F)c(OC)c3)cncc2c1O [Compound 30, 4-(3,5-Dimethoxy-4-(2,2,2-trifluoroethoxy)benzyl)-7-ethoxyisoquinolin-8-ol hydrochloride] | 63.8 nM | – | –
10 | 59% | 1310 nM | CCOc1ccc2c(Cc3cc(OC)c(OCCC(C)C)c(OC)c3)cncc2c1O [Compound 33, 7-Ethoxy-4-(4-(isopentyloxy)-3,5-dimethoxybenzyl)isoquinolin-8-ol hydrochloride] | 160 nM | – | –
11 | – | – | CCCOc1c(OC)cc(C(=O)c2cncc3c(N)c(OCC)ccc23)cc1OC [Compound 66, (8-Amino-7-ethoxyisoquinolin-4-yl)(3,5-dimethoxy-4-propoxyphenyl)methanone hydrochloride] | 4.27 nM | 3.58 nM | IC50 [1, 5]: 3.76 nM; IC50 [1, 6]: 5.47 nM; IC50 [3, 7]: 2.23 nM
12 | – | – | CCOc1ccc2c(C(=O)c3cc(OC)c(OCC(C)C)c(OC)c3)cncc2c1OC(C)=O [Compound 78, 7-Ethoxy-4-(4-isobutoxy-3,5-dimethoxybenzoyl)isoquinolin-8-yl acetate] | 7.02 nM | 8.07 nM | IC50 [1, 5]: 11.1 nM; IC50 [1, 6]: 19.4 nM
13 | – | – | CCOc1ccc2c(C(=O)c3cc(OC)c(OC)c(OC)c3)cncc2c1NC(C)=O [Compound 111, N-(7-Ethoxy-4-(3,4,5-trimethoxybenzoyl)isoquinolin-8-yl)acetamide hydrochloride] | 96.8 nM | – | –
14 | – | – | CCOc1ccc2c(C(=O)c3cc(OC)c(OC)c(OC)c3)cncc2c1NC(=O)CN [Compound 112, 2-Amino-N-(7-ethoxy-4-(3,4,5-trimethoxybenzoyl)isoquinolin-8-yl)acetamide] | 7.9 nM | 31.3 nM | IC50 [1, 5]: 68.5 nM; IC50 [1, 6]: 62.8 nM; IC50 [3, 7]: 16.4 nM
15 | – | – | CCOc1ccc2c(C(=O)c3cc(OC)c(OC)c(OC)c3)cncc2c1NC(=O)OCC(C)C [Compound 113, Isobutyl (7-ethoxy-4-(3,4,5-trimethoxybenzoyl)isoquinolin-8-yl)carbamate hydrochloride] | 231 nM | – | –
16 | – | – | CCOc1ccc2c(C(=O)c3cc(OC)c(OC)c(OC)c3)cncc2c1NC(=O)[C@@H](N)Cc1ccccc1 [Compound 114, (S)-2-Amino-N-(7-ethoxy-4-(3,4,5-trimethoxybenzoyl)isoquinolin-8-yl)-3-phenylpropanamide dihydrochloride] | 92.6 nM | – | –
17 | – | – | CCOc1ccc2c(C(=O)c3cc(Br)c(OC)c(OC)c3)cncc2c1OC(C)=O [Compound 115, 4-(3-Bromo-4,5-dimethoxybenzoyl)-7-ethoxyisoquinolin-8-yl acetate] | 20.8 nM | – | –
18 | – | – | CCOc1ccc2c(C(=O)c3cc(Br)c(OC)c(OC)c3)cncc2c1O [Compound 116, (3-Bromo-4,5-dimethoxyphenyl)(7-ethoxy-8-hydroxyisoquinolin-4-yl)methanone hydrochloride] | 86.9 nM | – | –
19 | – | – | O=C(Nc1ccncc1)C(=O)c1cn(Cc2ccc(Cl)cc2)c2ccccc12 [Indibulin, reference compound] | 197 nM | – | –
20 | – | – | CC(=O)O[C@H]1C(=O)[C@@]2(C)[C@H]([C@H](OC(=O)c3ccccc3)[C@]3(O)C[C@H](OC(=O)[C@H](O)[C@@H](NC(=O)c4ccccc4)c4ccccc4)C(C)=C1C3(C)C)[C@]1(OC(C)=O)CO[C@@H]1C[C@@H]2O [Taxol, reference compound] | 6.9 nM | 7.16 nM | IC50 [3, 7]: 0.79 nM

Row | SMILES | inhibition at 5 µM [4] | IC50 [4] | IC50 ([2]; Homo sapiens) | IC50 [3, 8] | other results
21 | COc1ccc(/C=C\c2cc(OC)c(OC)c(OC)c2)cc1NC(=O)[C@@H](N)CO [AVE8062, reference compound] | 59.8% | 1790 nM | 7.78 nM | 15.4 nM | IC50 [1, 5]: 32.5 nM; IC50 [1, 6]: 52.9 nM; IC50 [3, 7]: 13.9 nM
22 | COc1ccc(/C=C\c2cc(OC)c(OC)c(OC)c2)cc1N [AVE8063, 3-amino-deoxycombretastatin A-4, reference compound] | – | 1070 nM | – | – | IC50 [1, 9]: 5.72 nM; IC50 [1, 10]: 7.74 nM; IC50 [2]: 2.71 nM; IC50 [3, 11]: 3.12 nM; IC50 [3, 12]: 5.33 nM; % Inhibition of tubulin polymerization at 5 μM [4]: 71.29%
23 | COc1ccc(/C=C\c2cc(OC)c(OC)c(OC)c2)cc1O [Combretastatin, reference compound] | 68.9% | – | 2.07 nM | – | –
24 | CCOc1ccc2c(Cc3cc(OC)c(OCC(C)C)c(OC)c3)cncc2c1N [Compound 31, 4-(4-Isobutoxy-3,5-dimethoxybenzyl)-7-ethoxyisoquinolin-8-amine dihydrochloride] | 55.4% | 1540 nM | 37 nM | – | –
25 | CCCCOc1c(OC)cc(Cc2cncc3c(O)c(OCC)ccc23)cc1OC [Compound 38, 4-(4-Butoxy-3,5-dimethoxybenzyl)-7-ethoxyisoquinolin-8-ol hydrochloride] | 67.4% | 1110 nM | 30.4 nM | – | –
